# Results published in USRE36481E, “HMG-CoA reductase inhibitors” (Merck & Co., Inc., priority 1998, dated 2000).
# System: not listed separately
# Test: Standing of the free dihydroxy acid (reversion to lactone)
# Type: physicochemical
# Details: free dihydroxy acid after isolation; can be maintained by increasing the pH above 7.0
# Procedure: The sodium salt of the compound II from Example 64 is dissolved in 2 ml of ethanol-water (1:1; v:v) and added to 10 ml of 1N hydrochloric acid from which the dihydroxy acid is extracted with ethyl acetate. The organic extract is washed once with water, dried (Na2 SO4), and evaporated in vacuo with a bath temperature not exceeding 30° C. […] The dihydroxy acid can be maintained by increasing the pH above 7.0.
row,SMILES,stability of the dihydroxy acid on standing
1,CCC(C)(C)C(=O)O[C@H]1C[C@@H](CO)C[C@@H]2CC[C@H](C)[C@H](CC[C@@H](O)C[C@@H](O)CC(=O)O)[C@H]21 [Example 70],"slowly reverts to the corresponding,parent lactone on standing"

# System: HMG-CoA reductase
# Test: HMG-CoA Reductase Inhibition Assay (in vitro, relative to compactin)
# Type: biochemical
# Details: IC50 compared with compactin determined simultaneously, compactin assigned 100; tested as sodium salt of dihydroxy acid form; solubilized rat liver microsomal enzyme
# Procedure: The intrinsic HMG-CoA reductase inhibition activity of the claimed compounds is measured in the in vitro protocol published in J. Med. Chem., 28, p. […] (1985) and described below: Male Holtzman Sprague-Dawley rats (225-250 g) were kept on reversed lighting and fed Purina rat chow containing 3% cholestyramine for 7 days preceding their sacrifice by CO2 asphyxiation. Livers were removed 6 hours into the dark cycle and used immediately to prepare microsomes. HMG-CoA reductase was solubilized from the freshly prepared microsomes by the method of Heller and Shrewsbury [J. Biol. Chem., 1976, 251, 3815]and purified through the second ammonium sulfate precipitation step as described by Kleinsek et al. [Proc. Natl. Acad. Sci. USA, 1977, 74, 1431]. […] The enzyme preparation was stored at -80° C. The assay is essentially the procedure of Shefer et al. [J. Lipid Res., 1972, 13, 402]. The complete assay medium contained the following in a total volume of 0.8 ml: phosphate buffer, pH 7.2, 100 mM; MgCl2, 3 mM; NADP, 3 mM; glucose-6-phosphate, 10 mM; glucose-6-phosphate dehydro-genase, 3 enzyme units; reduced glutathione 50 mM; HMG-CoA (glutaryl-3-^14 C, New England Nuclear), 0.2 mM (0.1 μCi); and partially purified enzyme stock solution, 100 μL. […] After a 40-minute incubation at 37° C. with shaking and exposure to air, the reaction was stopped by the addition of 0.4 mL of 8 N HCl. After an additional 30-minute incubation period at 37° C. to ensure the complete lactonization of mevalonic acid to mevalonolactone, 0.2 ml of the mixture was added to an 0.5×5.0 cm column containing 100-200 mesh Bio-Rex 5, chloride form (Bio-Rad), wetted with distilled water, as described by Alberts et al. [Proc. Natl. Acad. Sci. U.S.A., 1980, 77, 3967]. The unreacted [^14 C]HMG-CoA was absorbed on the resin and the [^14 C]mevalonolactone was eluted with distilled water (2×1 ml) directly into 7-ml scintillation vials. Five milliliters of Aquasol-2 (New England Nuclear) was added to each vial, and radioactivity was measured in a Packard Tri Carb Prias scintillation counter. IC50 values were determined by plotting percentage inhibition against test compound concentration and fitting a straight line to the resulting data by using the least-squares method.
row,Relative Potency,SMILES
1,100,CCC(C)(C)C(=O)OC[C@H]1C[C@@H]2CC[C@H](C)[C@H](CC[C@@H](O)C[C@@H](O)CC(=O)O)[C@H]2[C@@H](OC(=O)C(C)(C)CC)C1
2,726,CCC(C)(C)C(=O)O[C@H]1C[C@H](COC(=O)Nc2ccccc2)C=C2C=C[C@H](C)[C@H](CC[C@@H](O)C[C@@H](O)CC(=O)O)[C@H]21
3,100,CCC(C)(C)C(=O)O[C@H]1C[C@@H](C(=O)N(C(=O)NC2CCCCC2)C2CCCCC2)C[C@@H]2CC[C@H](C)[C@H](CC[C@@H](O)C[C@@H](O)CC(=O)O)[C@H]21
4,33,CCC(C)(C)C(=O)OC[C@H]1C=C2CC[C@H](C)[C@H](CC[C@@H](O)C[C@@H](O)CC(=O)O)[C@H]2[C@@H](OC(=O)C(C)(C)CC)C1
5,111,"CCC(C)(C)C(=O)O[C@H]1C[C@H](C(C)O)C[C@@H]2CC[C@H](C)[C@H](CC[C@@H](O)C[C@@H](O)CC(=O)O)[C@H]21 (single isomer, unassigned) [-- -- -- R CHOHCH3 (ISOMER A) 1,1-dimethylpropyl]"
6,104,"CCC(C)(C)C(=O)O[C@H]1C[C@H](C(C)O)C[C@@H]2CC[C@H](C)[C@H](CC[C@@H](O)C[C@@H](O)CC(=O)O)[C@H]21 (single isomer, unassigned) [-- -- -- R CHOHCH3 (ISOMER B) 1,1-dimethylpropyl]"
7,131,"CCC(C)(C)C(=O)O[C@H]1C[C@@H](C(C)O)C[C@@H]2CC[C@H](C)[C@H](CC[C@@H](O)C[C@@H](O)CC(=O)O)[C@H]21 (single isomer, unassigned) [-- -- -- S CHOHCH3 (ISOMER A) 1,1-dimethylpropyl]"
8,113,"CCC(C)(C)C(=O)O[C@H]1C[C@@H](C(C)O)C[C@@H]2CC[C@H](C)[C@H](CC[C@@H](O)C[C@@H](O)CC(=O)O)[C@H]21 (single isomer, unassigned) [-- -- -- S CHOHCH3 (ISOMER B) 1,1-dimethylpropyl]"
9,220,"CCC(C)(C)C(=O)O[C@H]1C[C@@H](C(O)c2ccccc2)C[C@@H]2CC[C@H](C)[C@H](CC[C@@H](O)C[C@@H](O)CC(=O)O)[C@H]21 (single isomer, unassigned) [-- -- -- S CHOHPH 1,1-dimethylpropyl]"
10,86,"CCC(C)(C)C(=O)O[C@H]1C[C@@H](CO)C[C@@H]2CC[C@H](C)[C@H](CC[C@@H](O)C[C@@H](O)CC(=O)O)[C@H]21 [-- -- -- S CH2 OH 1,1-dimethylpropyl]"
11,33,C[C@H]1CC[C@H]2C[C@H](CO)C[C@H](OC(=O)C3CCCCC3)[C@@H]2[C@H]1CC[C@@H](O)C[C@@H](O)CC(=O)O [-- -- -- S CH2 OH cyclohexyl]
12,125,"CCOC(=O)[C@H]1C[C@@H]2CC[C@H](C)[C@H](CC[C@@H](O)C[C@@H](O)CC(=O)O)[C@H]2[C@@H](OC(=O)C(C)(C)CC)C1 [-- -- -- S CO2 Et 1,1-dimethylpropyl]"
13,79,"CCC(C)(C)C(=O)O[C@H]1C[C@@H](C(=O)O)C[C@@H]2CC[C@H](C)[C@H](CC[C@@H](O)C[C@@H](O)CC(=O)O)[C@H]21 [-- -- -- S CO2 H 1,1-dimethylpropyl]"
14,80,"CCC(C)(C)C(=O)O[C@H]1C[C@@H](C(=O)OC(C)C)C[C@@H]2CC[C@H](C)[C@H](CC[C@@H](O)C[C@@H](O)CC(=O)O)[C@H]21 [-- -- -- S CO2 i-Pr 1,1-dimethylpropyl]"
15,107,"CCC(C)(C)C(=O)O[C@H]1C[C@@H](C(N)=O)C[C@@H]2CC[C@H](C)[C@H](CC[C@@H](O)C[C@@H](O)CC(=O)O)[C@H]21 [-- -- -- S CONH2 1,1-dimethylpropyl]"
16,75,"CCC(C)(C)C(=O)O[C@H]1C[C@@H](C(=O)N(C)C)C[C@@H]2CC[C@H](C)[C@H](CC[C@@H](O)C[C@@H](O)CC(=O)O)[C@H]21 [-- -- -- S CONMe2 1,1-dimethylpropyl]"
17,213,"CCC(C)(C)C(=O)O[C@H]1C[C@@H](CO)C=C2CC[C@H](C)[C@H](CC[C@@H](O)C[C@@H](O)CC(=O)O)[C@H]21 [db -- -- R CH2 OH 1,1-dimethylpropyl]"
18,47,CCC(C)C(=O)O[C@H]1C[C@@H](CO)C=C2C=C[C@H](C)[C@H](CC[C@@H](O)C[C@@H](O)CC(=O)O)[C@H]21 (stereo partly shown) [db -- db R CH2 OH sec-butyl]
19,94,"CCC(C)(C)C(=O)O[C@H]1C[C@@H](C(=O)O)C=C2C=C[C@H](C)[C@H](CC[C@@H](O)C[C@@H](O)CC(=O)O)[C@H]21 [db -- db R CO2 H 1,1-dimethylpropyl]"
20,189,"CCC(C)(C)C(=O)O[C@H]1C[C@H](CO)C=C2C=C[C@H](C)[C@H](CC[C@@H](O)C[C@@H](O)CC(=O)O)[C@H]21 [db -- db S CH2 OH 1,1-dimethylpropyl]"
21,99,"CCC(C)(C)C(=O)O[C@H]1C[C@H](C(=O)O)C=C2C=C[C@H](C)[C@H](CC[C@@H](O)C[C@@H](O)CC(=O)O)[C@H]21 [db -- db S CO2 H 1,1-dimethylpropyl]"
22,26,CCC(C)C(=O)O[C@H]1C[C@H](C(=O)O)C=C2C=C[C@H](C)[C@H](CC[C@@H](O)C[C@@H](O)CC(=O)O)[C@H]21 (stereo partly shown) [db -- db S CO2 H sec-butyl]
23,65,"CCN(CC)C(=O)[C@@H]1C=C2C=C[C@H](C)[C@H](CC[C@@H](O)C[C@@H](O)CC(=O)O)[C@H]2[C@@H](OC(=O)C(C)(C)CC)C1 [db -- db S CONEt2 1,1-dimethylpropyl]"
24,82,"CCC(C)(C)C(=O)O[C@H]1C[C@H](C(=O)N(C)C)C=C2C=C[C@H](C)[C@H](CC[C@@H](O)C[C@@H](O)CC(=O)O)[C@H]21 [db -- db S CONMe2 1,1-dimethylpropyl]"
